The results in this text go back to ChEMBL document CHEMBL6134869, “Silaproline-bearing nirmatrelvir derivatives are potent inhibitors of the SARS-CoV-2 main protease highlighting the value of silicon-derivatives in structure-activity-relationship studies” (Eur J Med Chem, 2025).

Data set [1] is described as follows: Inhibition of recombinant SARS-CoV-2 main protease using ALNDFSNSGSDVLYQPPQTSITSAVLQSGFRKMAFPS-NH2 as substrate preincubated for 15 mins followed by substrate addition and measured after 30 mins by Solid phase extraction coupled with MS analysis. The arrangement: species or system Severe acute respiratory syndrome coronavirus 2.
The subject of a further data set is SARS-CoV-2. Put plainly: Antiviral activity against SARS-CoV-2 MT007544.1 infected in African green monkey Vero E6 cells pre infected with virus for 1 hrs followed by incubation with cells for 2 hrs and measured after 20 hrs by ELISPOT reader based analysis. Format: functional, organism-based. Conditions: Severe acute respiratory syndrome coronavirus 2, MT007544.1, Vero C1008.

The test system of a further data set is Vero C1008. Put plainly: Cytotoxicity against African green monkey Vero E6 cells. Format: toxicity, cell-based. Conditions: chlorocebus sabaeus.
Data set [2] relates to Severe acute respiratory syndrome coronavirus 2. Put plainly: Inhibition of recombinant SARS-CoV-2 main protease assessed as Kinact/Ki using ALNDFSNSGSDVLYQPPQTSITSAVLQSGFRKMAFPS-NH2 as substrate preincubated for 15 mins followed by substrate addition and measured after 30 mins by Solid phase extraction coupled with MS analysis. To be noted: time 45.0 min.

In the case of `COC(=O)N[C@H](C(=O)N1C[Si](C)(C)C[C@H]1C(=O)N[C@H](C#Cc1ccccc1)C[C@@H]1CCNC1=O)C(C)(C)C`, the IC50 (commonly the concentration that gives 50% inhibition) in data set [1] is above 50000 nM. Besides, in the data set on SARS-CoV-2, the 50% effective concentration (EC50) – broadly, the concentration that produces a half-maximal response – is above 50000 nM.
Regarding `COC(=O)N[C@H](C(=O)N1C[Si](C)(C)C[C@H]1C(=O)N[C@H](C#N)C[C@@H]1CCNC1=O)C(C)(C)C`, in data set [1], the IC50 came to 59 nM. Further, the Activity entry in the data set with Vero C1008 is listed as “Non-toxic”. The 50% effective concentration (EC50) with SARS-CoV-2 is above 50000 nM.
In the case of `C#C[C@H](C[C@@H]1CCNC1=O)NC(=O)[C@@H]1C[Si](C)(C)CN1C(=O)[C@@H](NC(=O)OC)C(C)(C)C`, the K in data set [2] is 3640 M⁻¹ s⁻¹. In addition, the IC50 in data set [1] was found to be 340 nM. In the data set with SARS-CoV-2, this molecule displayed an EC50 above 50000 nM.
Take `CC(C)(C)[C@H](NC(=O)C(F)(F)F)C(=O)N1C[Si](C)(C)C[C@H]1C(=O)N[C@H](C#N)C[C@@H]1CCNC1=O`: the 50% inhibitory concentration (IC50) in data set [1] was determined as 41 nM. In addition, the Activity entry in the data set on Vero C1008 is reported as “Non-toxic”. The same molecule registered an EC50 in the data set with SARS-CoV-2 of 24000 nM.
For `CC(C)(C)[C@H](NC(=O)C(F)(F)F)C(=O)N1C[C@H]2[C@@H]([C@H]1C(=O)N[C@H](C#N)C[C@@H]1CCNC1=O)C2(C)C` [NIRMATRELVIR], the Activity entry with Vero C1008 is recorded as “Non-toxic”.
Turning to `COC(=O)N[C@H](C(=O)N1C[Si](C)(C)C[C@H]1C(=O)N[C@H](C#N)C[C@@H]1CCNC1=O)C1CCCCC1`, in data set [1], the IC50 came to 113 nM.
As to `C#C[C@H](C[C@@H]1CCNC1=O)NC(=O)[C@@H]1[C@@H]2[C@H](CN1C(=O)[C@@H](NC(=O)C(F)(F)F)C(C)(C)C)C2(C)C`, the K in data set [2] stood at 597 M⁻¹ s⁻¹.
Take `C#C[C@H](C[C@@H]1CCNC1=O)NC(=O)[C@@H]1C[Si](C)(C)CN1C(=O)[C@@H](NC(=O)C(F)(F)F)C(C)(C)C`: in data set [1], the IC50 was found to be 280 nM. For the same molecule, the concentration for a half-maximal effect (EC50) with SARS-CoV-2 was found to be 46000 nM.
Taken in the same sequence, the figures for `C#C[C@H](C[C@@H]1CCNC1=O)NC(=O)[C@@H]1CC(C)(C)CN1C(=O)[C@@H](NC(=O)OC)C(C)(C)C` were 320 nM and above 50000 nM.
As for `COC(=O)N[C@H](C(=O)N1CC(C)(C)C[C@H]1C(=O)N[C@H](C#N)C[C@@H]1CCNC1=O)C(C)(C)C`, the IC50 in data set [1] worked out at 30 nM. The Activity entry with Vero C1008 is recorded as “Non-toxic”. The molecule further gave an EC50 with SARS-CoV-2 above 50000 nM.
